We go through 4 compounds from patent publication US20170053081A1, “METHODS AND MATERIALS FOR CHARACTERIZING INTESTINAL BARRIER FUNCTION” (THE ARIZONA BOARD OF REGENTS ON BEHALF OF THE UNIVERSITY OF …, priority 2014, published 2017).

Data set [1] relates to intestinal barrier function. Description: Intestinal barrier function biomarker panel (plasma FABP2, claudin 3, citrulline) in children after cardiopulmonary bypass. To be noted: for Association with changes in post-operative FABP2, claudin3, or citrulline: caudal or spinal, post-operative pain management, p>0.05.
Protocol: A panel of plasma biomarkers was used to reflect intestinal epithelial cellular and paracellular structure (FABP2 and claudin 3), as well as cellular and paracellular function (citrulline and DSPT). In particular, twenty children aged newborn to 18 years undergoing repair or palliation of congenital heart disease with CPB were examined. Plasma FABP2, claudin 3, and citrulline were measured after induction of general anesthesia, and at 6, 12, 24, 48, and 120 hours post-operatively.
Inclusion criteria were age greater than 37 weeks corrected gestational age and a diagnosis of CHD requiring surgical repair or palliation with the use of CPB. Exclusion criteria were known pre-existing gastrointestinal dysfunction, immune dysfunction, active intracranial bleeding, and anuric renal failure. All operations were performed by two surgeons. CPB and anesthetic regimens were per usual care.
Blood samples for measurement of plasma FABP2, claudin 3, and citrulline were collected from indwelling intravascular catheters pre-operatively after induction of general anesthesia, but prior to CPB, and at 6, 12, 24, 48, and ≧120 hours post-operatively. […]
Plasma concentrations of human FABP2 were evaluated by ELISA according to the manufacturer's protocol (Standards range: 10 000 pg/ml to 156.25 pg/ml) (R&D Systems, Minneapolis, Minn.). Claudin 3 concentration was evaluated by ELISA in plasma from patients according to manufacturer's instruction (standard range from 20 ng/ml to 0.312 ng/ml) (Uscn life science Inc, Wuhan, China). […]
Samples were separated on Phenomenex Luna HILIC 200A SB-C18, 3 μm, 150×2.00 mm column (Torrance, Calif.) using Paradigm MS4B-multi-dimensional separations module (Michrom BioResources, Inc., Auburn, Calif.). […] Full injection loop (20 μl) was used to introduce 2 μl sample diluted with 18 μl of solvent B. AB SCIEX API 3000 triple-quadrupole mass spectrometer (Applied Biosystems, Foster City, Calif.) controlled by Analyst 1.5.1 in-line with the HPLC was used for citrulline detection and quantitative analysis.
In the next data set the test system is plasma FABP2. The data set is described as follows: Serial plasma FABP2 (ELISA) in children after cardiopulmonary bypass for CHD, by treatment factor. Particulars: children after CPB; for Association of infusion with elevation in plasma FABP2 over time: vasoactive infusions, any dose, p<0.01. (In general: An ELISA detects its analyte on a solid surface through an enzyme-linked reagent.)

`CCCCN1CCCCC1C(=O)Nc1c(C)cccc1C` (stereo not drawn) [bupivicaine]: the “Association with changes in post-operative FABP2, claudin3, or citrulline” value in data set [1] is “not associated with changes”.

In the case of `CNC[C@H](O)c1ccc(O)c(O)c1` [epinephrine], the “Association with elevated plasma FABP2” value in the data set with plasma FABP2 (p=0.03) is listed as “associated with elevated plasma FABP2”. For the same compound, the “Association of infusion with elevation in plasma FABP2 over time” value with plasma FABP2 is listed as “associated with”.

On to `CN1CC[C@]23c4c5ccc(O)c4O[C@H]2[C@@H](O)C=C[C@H]3[C@H]1C5` [morphine], for which, in data set [1], the “Association with changes in post-operative FABP2, claudin3, or citrulline” value is recorded as “not associated with changes”.

Consider `NC(=O)CC[C@@H]1NC(=O)[C@H](Cc2ccccc2)NC(=O)[C@H](Cc2ccc(O)cc2)NC(=O)[C@@H](N)CSSC[C@@H](C(=O)N2CCC[C@H]2C(=O)N[C@@H](CCCN=C(N)N)C(=O)NCC(N)=O)NC(=O)[C@H](CC(N)=O)NC1=O` [vasopressin], for which, in the data set on plasma FABP2, the “Association of infusion with elevation in plasma FABP2 over time” value was “associated with”. Also, in data set [1] (children undergoing CPB, post-operative use to maintain mean arterial blood pressure), the “Risk for intestinal barrier dysfunction” value is on record as “increase the risk for intestinal barrier dysfunction”.
